This is an account of results in ChEMBL document CHEMBL1201862, “PubChem BioAssay data set” (2004).

Among the test systems are MDA-N; TK-10; HL-60; OVCAR-3; SW-620; NCI-H226; K562; A498; RXF 393; OVCAR-4; SF-539; SN12C; SF-268; NCI/ADR-RES; PC-3; MDA-MB-435; T47D; HCT-116; HCT-15; SR.
What all share (assay): NCI tumour cell line growth inhibition, 48 h

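These data come from cells grown in 96-well plates and exposed to compound for 48 hours at five concentrations. GI50: concentration for 50% inhibition of growth.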 Activity calls are given as the source filed them. No stated cut-off is given here; in the data, active = GI50 up to about 1.1 µM and inactive = higher. A value given as a limit tells only on which side of the number the result lay.

For `CC1=C(C(=O)NCCCN(CCO)CCO)CC(C(=O)NCCCN(CCO)CCO)=C(C)N1`, the GI50 was 86.1 µM (inactive) in the assay with MDA-N; > 100 µM (inactive) in the assay with TK-10; > 100 µM (inactive) in the assay on HL-60; > 100 µM (inactive) in the assay with OVCAR-3; > 100 µM (inactive) in the assay with SW-620; > 100 µM (inactive) in the assay with NCI-H226. Moreover, the GI50 is > 100 µM (inactive) with K562; 27.4 µM (inactive) in the assay on A498; 26.4 µM (inactive) in the assay on RXF 393; > 100 µM (inactive) in the assay with OVCAR-4; > 100 µM (inactive) with SF-539; > 100 µM (inactive) in the assay with SN12C. The GI50 in the assay with SF-268 is 34.8 µM (inactive); in the assay with NCI/ADR-RES, > 100 µM (inactive); in the assay with PC-3, 59.8 µM (inactive); in the assay on MDA-MB-435, 56 µM (inactive); in the assay on T47D, 62.1 µM (inactive); in the assay with HCT-116, > 100 µM (inactive). Further, in the assay with HCT-15, the GI50 was > 100 µM.

As for `COc1ccc(/C(C#N)=C/c2ccc(OC)c(OC)c2)cc1`, the GI50 in the assay with MDA-N, with TK-10, in the assay with HL-60, in the assay with OVCAR-3, in the assay on SW-620 and in the assay on NCI-H226 was > 100 µM (inactive) each time. For the same molecule, the GI50 in the assay with K562 was > 100 µM (inactive); in the assay on A498, > 100 µM (inactive); in the assay with RXF 393 it was > 100 µM (inactive); in the assay with OVCAR-4, 69.8 µM (inactive); with SF-539 it was > 100 µM (inactive); with SN12C, > 100 µM (inactive). The GI50 in the assay with SF-268 is > 100 µM (inactive); with NCI/ADR-RES, > 100 µM (inactive); in the assay on PC-3, > 100 µM (inactive); in the assay with MDA-MB-435 it was 83.4 µM (inactive); in the assay with T47D it was 49.5 µM (inactive); in the assay on HCT-116 it was > 100 µM (inactive). In the assay with HCT-15, this molecule showed a GI50 of 37.2 µM.

Take `COc1cccc(-n2c(N)c(-c3nc4cc(C(F)(F)F)ccc4s3)c3ccc([N+](=O)[O-])cc3c2=O)c1`: the GI50 in the assay with MDA-N, in the assay on TK-10, in the assay with OVCAR-3, in the assay on NCI-H226, in the assay with K562 and in the assay with A498 was > 100 µM (inactive) throughout. In addition, the GI50 in the assay with OVCAR-4, with SN12C, in the assay on SF-268, with NCI/ADR-RES, in the assay on PC-3 and in the assay with MDA-MB-435 was > 100 µM (inactive) each time. Moreover, the GI50 is > 100 µM (inactive) in the assay with T47D, > 100 µM (inactive) with HCT-116 and > 100 µM in the assay on HCT-15.

On to `CCCCCCOc1ccc(NC2=C(Cl)C(=O)c3ncccc3C2=O)cc1`, for which the GI50 with MDA-N is 1.52 µM (inactive); in the assay with TK-10, 4.31 µM (inactive); in the assay with OVCAR-3, 2.1 µM (inactive); in the assay on SW-620, 1.83 µM (inactive); with NCI-H226, 5.61 µM (inactive); in the assay with K562, 2.59 µM (inactive). Also, the GI50 in the assay on A498 is > 10 µM (inactive); with RXF 393 it was 1.84 µM (inactive); in the assay with SF-539, 1.72 µM (inactive); with SN12C it was 1.67 µM (inactive); in the assay with SF-268, 1.97 µM (inactive); with PC-3 it was 1.51 µM (inactive). Further, the GI50 is 1.7 µM (inactive) in the assay on MDA-MB-435, 1.68 µM (inactive) in the assay on T47D, 1.16 µM (inactive) in the assay on HCT-116 and 2.02 µM in the assay with HCT-15.

As to `CC(=O)O[C@H]1CC[C@@]2(C)C(=CC[C@@H]3[C@@H]2CC[C@]2(C)c4nc(N)c(C#N)cc4C[C@@H]32)C1`, the GI50 was 29 µM (inactive) in the assay with MDA-N; 27.2 µM (inactive) in the assay with TK-10; 12.2 µM (inactive) in the assay with HL-60; 1.75 µM (inactive) with OVCAR-3; 43.4 µM (inactive) in the assay with SW-620; > 100 µM (inactive) in the assay with NCI-H226. In addition, the GI50 in the assay on K562 was 15.8 µM (inactive); with A498 it was > 67.6 µM (inactive); with RXF 393, 10.7 µM (inactive); in the assay with OVCAR-4, 19.9 µM (inactive); with SF-539, 13.7 µM (inactive); in the assay on SN12C it was 36.9 µM (inactive). Besides, the GI50 in the assay on SF-268 is 60.5 µM (inactive); in the assay on PC-3, 42.5 µM (inactive); in the assay with MDA-MB-435, 33.7 µM (inactive); with T47D it was 11.4 µM (inactive); in the assay on HCT-116, 18.2 µM (inactive); in the assay on HCT-15, 2.94 µM.

Turning to `CC(=O)Oc1ccccc1C(=O)Nc1ncc([N+](=O)[O-])s1` [NITAZOXANIDE], the GI50 was 27.3 µM (inactive) with MDA-N; 16.1 µM (inactive) in the assay with TK-10; 5.71 µM (inactive) with OVCAR-3; 33.1 µM (inactive) in the assay with SW-620; 8.83 µM (inactive) in the assay on NCI-H226; 55.7 µM (inactive) with K562. Besides, the GI50 was 56.2 µM (inactive) in the assay with A498; 4.42 µM (inactive) in the assay on RXF 393; 28.7 µM (inactive) in the assay with OVCAR-4; 24.8 µM (inactive) in the assay on SF-539; 19.8 µM (inactive) with SN12C; 14.9 µM (inactive) in the assay on SF-268. Moreover, the GI50 in the assay on NCI/ADR-RES is 10.3 µM (inactive); with PC-3, 9.53 µM (inactive); in the assay on MDA-MB-435, 22.8 µM (inactive); in the assay with T47D, 13.7 µM (inactive); in the assay with HCT-116, 11.2 µM (inactive); with HCT-15 it was 19.9 µM.

For `O=c1[nH]c(=O)c2c([nH]1)[nH]c1ccccc12`, the GI50 in the assay with MDA-N was > 100 µM (inactive); in the assay with TK-10, > 100 µM (inactive); in the assay with HL-60, > 10 µM (inactive); with OVCAR-3, 65.2 µM (inactive); in the assay with SW-620, > 100 µM (inactive); in the assay on NCI-H226, > 100 µM (inactive). Also, the GI50 was > 100 µM (inactive) in the assay with K562; > 100 µM (inactive) with A498; > 100 µM (inactive) in the assay on RXF 393; 29.3 µM (inactive) in the assay on OVCAR-4; > 100 µM (inactive) in the assay on SF-539; > 100 µM (inactive) with SN12C. Further, the GI50 in the assay with SF-268, in the assay with SR, in the assay with NCI/ADR-RES, in the assay on MDA-MB-435, in the assay on T47D and in the assay on HCT-116 was > 100 µM (inactive) throughout. The GI50 in the assay on HCT-15 is > 100 µM.

Consider `O=c1[nH]nc(Cc2ccc(Cl)cc2)n1CCO`, for which the GI50 in the assay with MDA-N, with TK-10, in the assay on HL-60, in the assay with OVCAR-3, in the assay on SW-620 and in the assay with NCI-H226 was > 100 µM (inactive) in each case. The GI50 in the assay with K562, with A498, with OVCAR-4, with SF-539, in the assay with SN12C and in the assay on SF-268 was > 100 µM (inactive) each time. Besides, the GI50 with NCI/ADR-RES is > 100 µM (inactive); in the assay on PC-3, > 100 µM (inactive); in the assay with MDA-MB-435, > 100 µM (inactive); in the assay on T47D, > 100 µM (inactive); in the assay on HCT-116, > 100 µM (inactive); in the assay with HCT-15, > 100 µM.

Regarding `COc1cc(O)c(/C=N/N=C(\N)NO)c(OC)c1`, the GI50 with MDA-N is > 10 µM (inactive); with TK-10, > 10 µM (inactive); in the assay with HL-60 it was > 10 µM (inactive); in the assay on OVCAR-3, 5.5 µM (inactive); in the assay with SW-620 it was > 10 µM (inactive); in the assay on NCI-H226, 5.11 µM (inactive). The GI50 in the assay with K562 is > 10 µM (inactive); in the assay on A498, > 10 µM (inactive); with RXF 393, 8.3 µM (inactive); in the assay on OVCAR-4 it was > 10 µM (inactive); with SF-539, > 10 µM (inactive); in the assay with SN12C it was > 10 µM (inactive). Further, the GI50 with SF-268 is > 10 µM (inactive); with NCI/ADR-RES, 5.04 µM (inactive); with PC-3, 6.18 µM (inactive); in the assay on MDA-MB-435, > 10 µM (inactive); with T47D it was > 10 µM (inactive); in the assay on HCT-116, 6.19 µM (inactive). In the assay on HCT-15, this molecule had a GI50 of 5.04 µM.

With `O=C(O)C1CCCCN1C(=O)Cc1c[nH]c2ccccc12` (stereo not drawn), the GI50 with MDA-N, with TK-10, with HL-60, in the assay on OVCAR-3, with SW-620 and in the assay with NCI-H226 was > 100 µM (inactive) each time. Also, the GI50 in the assay with K562, with RXF 393, in the assay with OVCAR-4, in the assay with SF-539, in the assay on SN12C and in the assay on SF-268 was > 100 µM (inactive) throughout. Also, the GI50 with NCI/ADR-RES is > 100 µM (inactive); with PC-3, > 100 µM (inactive); in the assay with MDA-MB-435 it was > 100 µM (inactive); with T47D, > 100 µM (inactive); in the assay with HCT-116, > 100 µM (inactive); in the assay on HCT-15, > 100 µM.

For the molecule `Cc1ncc([N+](=O)[O-])n1CCNC(=O)CCCn1ccnc1[N+](=O)[O-]`, the GI50 with MDA-N, with TK-10, in the assay on HL-60, in the assay with OVCAR-3, with SW-620 and in the assay on NCI-H226 was > 100 µM (inactive) in each case. The GI50 with K562, in the assay on A498, with RXF 393, in the assay with OVCAR-4, in the assay with SF-539 and with SN12C was > 100 µM (inactive) throughout. In addition, the GI50 in the assay with SF-268, in the assay with SR, with PC-3, in the assay on MDA-MB-435, in the assay with T47D and in the assay with HCT-116 was > 100 µM (inactive) throughout. Moreover, in the assay with HCT-15, the GI50 was > 100 µM.
